In PubChem BioAssay AID330 (DTP/NCI, 2004):
Values joined by “and” are separate entries in the source; they are usually repeats but may differ in a detail not shown here. Equal entries are not always repeated. Toxic doses and inconclusive results are not listed.

System: P388 leukemia ip, CD2F1 mice, survival T/C
Assay: NCI In Vivo Anticancer Drug Screen. Data for tumor model P388 Leukemia (intraperitoneal) in CD2F1 (CDF1) mice
Details: endpoint: median survival time, higher = longer survival
How it was run: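 Mice carrying the transplanted tumor received test compound or vehicle. Survival was recorded in each group, and the value is the treated-group measurement divided by that of the vehicle-treated control group.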

[1] = dose: 50.0 mg/kg/injection, schedule: Q01DX005 (ip), vehicle: Klucel (hydroxypropylcellulose) (HPC)
[2] = dose: 100.0 mg/kg/injection, schedule: Q01DX005 (ip), vehicle: Klucel (hydroxypropylcellulose) (HPC)
[3] = dose: 60.0 mg/kg/injection, schedule: Q01DX005 (ip), vehicle: saline with Tween-80
[4] = dose: 120.0 mg/kg/injection, schedule: Q01DX005 (ip), vehicle: saline with Tween-80
[5] = dose: 240.0 mg/kg/injection, schedule: Q01DX005 (ip), vehicle: saline with Tween-80

With `Nc1ccc(-c2c[nH]c(=O)c([N+](=O)[O-])c2)cc1` the T/C (dose: 50.0 mg/kg/injection, schedule: Q01DX009 (ip), vehicle: saline with Tween-80) was 99 % of control, the T/C (dose: 100.0 mg/kg/injection, schedule: Q01DX009 (ip), vehicle: saline with Tween-80) was 99 % of control and the T/C (dose: 200.0 mg/kg/injection, schedule: Q01DX009 (ip), vehicle: saline with Tween-80) was 100 % of control.

For `NC(CCS(=O)(=O)NCc1ccc(S(=O)(=O)F)cc1)C(=O)O` (stereo not drawn), the T/C (dose: 12.5 mg/kg/injection, schedule: Q01DX009 (ip), vehicle: other) was 104 % of control, the T/C (dose: 25.0 mg/kg/injection, schedule: Q01DX009 (ip), vehicle: other) was 103 % of control and the T/C (dose: 50.0 mg/kg/injection, schedule: Q01DX009 (ip), vehicle: other) was 100 % of control. For the same compound, the T/C (dose: 100.0 mg/kg/injection, schedule: Q01DX009 (ip), vehicle: other) was 96 % of control and the T/C (dose: 200.0 mg/kg/injection, schedule: Q01DX009 (ip), vehicle: other) was 88 % of control.

In the case of `COc1ccc(C(CC(=O)O)CC(=O)N(CCCl)CCCl)cc1C` (stereo not drawn), the T/C (dose: 100.0 mg/kg/injection, schedule: Q04DX003 (ip), vehicle: saline) is reported as 102 % of control, the T/C (dose: 200.0 mg/kg/injection, schedule: Q04DX003 (ip), vehicle: saline) is reported as 100 % of control and the T/C (dose: 400.0 mg/kg/injection, schedule: Q04DX003 (ip), vehicle: saline) is reported as 100 % of control.

For `Clc1ccc(-c2csc3cccc[n+]23)cc1`, the T/C (dose: 12.5 mg/kg/injection, schedule: Q01DX009 (ip), vehicle: Klucel (hydroxypropylcellulose) (HPC)) was 103 % of control, the T/C (dose: 25.0 mg/kg/injection, schedule: Q01DX009 (ip), vehicle: Klucel (hydroxypropylcellulose) (HPC)) was 100 % of control and the T/C (dose: 50.0 mg/kg/injection, schedule: Q01DX009 (ip), vehicle: Klucel (hydroxypropylcellulose) (HPC)) was 103 % of control.

In the case of `CCCCCCCCCCC(CCCCCCCCCC)c1ccccc1`, the T/C (dose: 75.0 mg/kg/injection, schedule: Q01DX001 (ip), vehicle: saline sonified) is reported as 91 % of control, the T/C (dose: 150.0 mg/kg/injection, schedule: Q01DX001 (ip), vehicle: saline sonified) is reported as 95 % of control and the T/C (dose: 300.0 mg/kg/injection, schedule: Q01DX001 (ip), vehicle: saline sonified) is reported as 95 % of control.

`CC(=O)Nc1ccc2oc3ccc(Cl)cc3c(=O)c2c1` was tested, and the T/C [1] was 98 % of control, the T/C [2] was 92 % of control and the T/C (dose: 200.0 mg/kg/injection, schedule: Q01DX005 (ip), vehicle: Klucel (hydroxypropylcellulose) (HPC)) was 91 % of control.

In the case of `CCC(=O)N(C)C(C)C(=O)OC1CC(=O)N(C)c2cc(cc(OC)c2Cl)CC(CBr)=C/C=C/C(OC)C2(O)CC(OC(=O)N2)C(C)C2OC12C` (stereo not drawn), the T/C (dose: 32.0 micrograms/kg/injection, schedule: Q01DX009 (ip), vehicle: saline + alcohol) is reported as 152 % of control and the T/C (dose: 64.0 micrograms/kg/injection, schedule: Q01DX009 (ip), vehicle: saline + alcohol) is reported as 150 % of control.

In the case of `Cc1c2cc(Cl)c3ccccc3c2c[n+]2ccccc12`, the T/C (dose: 16.5 mg/kg/injection, schedule: Q01DX009 (ip), vehicle: saline) is reported as 111 % of control, the T/C (dose: 25.0 mg/kg/injection, schedule: Q01DX009 (ip), vehicle: saline) is reported as 121 % of control and the T/C (dose: 37.5 mg/kg/injection, schedule: Q01DX009 (ip), vehicle: saline) is reported as 124 % of control. The T/C (dose: 50.0 mg/kg/injection, schedule: Q04DX003 (ip), vehicle: saline with Tween-80) was 113 % of control, the T/C (dose: 100.0 mg/kg/injection, schedule: Q04DX003 (ip), vehicle: saline with Tween-80) was 121 % of control and 123 % of control and the T/C (dose: 200.0 mg/kg/injection, schedule: Q04DX003 (ip), vehicle: saline with Tween-80) was 92 % of control. The T/C (dose: 400.0 mg/kg/injection, schedule: Q04DX003 (ip), vehicle: saline with Tween-80) was 108 % of control.

For `O=C(c1ccccc1)N1OCCc2ccccc21`, the T/C [3] was 100 % of control, the T/C [4] was 104 % of control and the T/C [5] was 96 % of control.

For `Cc1ccc(S(=O)(=O)NN=c2c3ccccc3ccc3ccccc23)cc1`, the T/C (dose: 100.0 mg/kg/injection, schedule: Q04DX002 (ip), vehicle: Klucel (hydroxypropylcellulose) (HPC)) was 94 % of control, the T/C (dose: 200.0 mg/kg/injection, schedule: Q04DX002 (ip), vehicle: Klucel (hydroxypropylcellulose) (HPC)) was 91 % of control and the T/C (dose: 400.0 mg/kg/injection, schedule: Q04DX002 (ip), vehicle: Klucel (hydroxypropylcellulose) (HPC)) was 90 % of control.

For `O=C1C(Cl)=C(NCCC2CCCN3CCCCC23)C(=O)c2ccccc21` (stereo not drawn), the T/C (dose: 12.5 mg/kg/injection, schedule: Q01DX005 (ip), vehicle: Klucel (hydroxypropylcellulose) (HPC)) was 99 % of control and 101 % of control and 93 % of control, the T/C (dose: 25.0 mg/kg/injection, schedule: Q01DX005 (ip), vehicle: Klucel (hydroxypropylcellulose) (HPC)) was 98 % of control and 99 % of control and 97 % of control and the T/C [2] was 109 % of control and 111 % of control.

With `COc1ccc(C(Cc2ccccc2)NCCNCCO)cc1` (stereo not drawn) the T/C [1] was 101 % of control and the T/C [2] was 101 % of control.

`O=C1C(CN2CCCCC2)=C(O)C(c2ccccc2)N1c1ccccc1` (stereo not drawn) was tested, and the T/C [3] was 96 % of control, the T/C [4] was 95 % of control and the T/C [5] was 97 % of control.
